# Test results: publication PMC4900628, “Critical Evaluation of P2X7 Receptor Antagonists in Selected Seizure Models” (PLoS ONE, 2016)
# Key:
# [1] = Plasma and brain concentration in mice (co-administration with AEDs); type: in vivo; details: PTZ-T
# Method: Blood was collected intracardially by heart […] pipettes supplemented with heparin-Na (ratiopharm, Ulm, Germany; 10μl of 5.000 I.U./ml) and separated by centrifuging (1500xg for 10 min) at 6-8°C. The plasma was stored at -20°C in plastic tubes. After blood sample collection, rats were decapitated and brains were quickly dissected. After removing the adherent blood by tissue paper and cutting off the cerebellum, the samples were fresh frozen using liquid nitrogen. Brain tissue was stored at -80°C and delivered to the different laboratories on dry ice. For mice (groups with n = 6), a similar procedure was used for the preparation of plasma and brain samples. In experiments in which AFC was co-administered with carbamazepine or ethosuximide, drug concentrations in plasma and brain were estimated to detect potential pharmacokinetic interactions. Samples from experiments with AFC were analysed at the Lead Discovery Center (Dortmund, Germany). Briefly, AFC, carbamazepine and ethosuximide were extracted from plasma and homogenized brain by protein precipitation using acetonitrile. Resulting filtrates were analysed by liquid chromatography tandem-mass spectrometry (LC-MS/MS) using a Prominence UFLC system (Shimadzu, Duisburg, Germany) coupled to a QTrap 5500 instrument (ABSciex, Darmstadt, Germany). The compounds were separated on a Zorbax Eclipse Plus C18 column (Agilent Technologies, Santa Clara, CA, USA) with an acetonitrile/water gradient containing 0.1% formic acid as solvent. Chromatographic conditions and mass spectrometer parameters were optimized for each analyte. Plasma and brain concentrations of the compounds were calculated by means of a standard curve. Data were analysed using SigmaPlot (vers. 12.0, Systat Software, Erkrath, Germany) and SPSS (IBM SPSS Statistics 20, […], Germany), respectively. Results are expressed as mean ± SEM. […] In the MES-T, the current intensity inducing tonic hindlimb extensions in 50% of the mice (CC50 values with confidence limits for 95% probability) and the statistical significance was calculated using Probit analysis (SPSS). […] In the PTZ-T, the number of animals in the group with clonic seizures and the latency time were analysed using Fisher's exact probability test and the Mann-Whitney rank sum test, respectively. For multiple comparisons of the latency time a one-way ANOVA with the Holm-Sidak post hoc test was used. The influence of AFC on the plasma and brain concentrations of the antiepileptic drugs was statistical compared using the same procedure. In the PTZ-kindling model, the mean seizure stage within a group was calculated in relation to the number of PTZ-injections. Statistical comparison between vehicle- and compound-treated groups in this model was performed with two-way repeated measures ANOVA, followed by the Holm-Sidak post hoc test. The mean number of PTZ-injections needed to produce the first generalized seizure (≥ stage 3 convulsions) in the vehicle- versus compound-treated groups was statistically compared using a Mann-Whitney rank sum test. In fully kindled rats, the calculated mean seizure stage within a group after vehicle- and compound-treatment were compared using a paired t-test. P < 0.05 was the accepted minimum level of significance.
# [2] = target: T1, P2X7R (Rattus norvegicus, UniProt Q64663); test: P2X7R brain occupancy, ex vivo receptor binding autoradiography; type: in vivo; details: sc, rats, 15 mg/kg s.c., hippocampal slices, [3H] JNJ-54232334 autoradiography
# T1 construct: from tissue; host or cells: rat (Wistar) brain, hippocampal slices
# T1 sequence (Q64663 1-595): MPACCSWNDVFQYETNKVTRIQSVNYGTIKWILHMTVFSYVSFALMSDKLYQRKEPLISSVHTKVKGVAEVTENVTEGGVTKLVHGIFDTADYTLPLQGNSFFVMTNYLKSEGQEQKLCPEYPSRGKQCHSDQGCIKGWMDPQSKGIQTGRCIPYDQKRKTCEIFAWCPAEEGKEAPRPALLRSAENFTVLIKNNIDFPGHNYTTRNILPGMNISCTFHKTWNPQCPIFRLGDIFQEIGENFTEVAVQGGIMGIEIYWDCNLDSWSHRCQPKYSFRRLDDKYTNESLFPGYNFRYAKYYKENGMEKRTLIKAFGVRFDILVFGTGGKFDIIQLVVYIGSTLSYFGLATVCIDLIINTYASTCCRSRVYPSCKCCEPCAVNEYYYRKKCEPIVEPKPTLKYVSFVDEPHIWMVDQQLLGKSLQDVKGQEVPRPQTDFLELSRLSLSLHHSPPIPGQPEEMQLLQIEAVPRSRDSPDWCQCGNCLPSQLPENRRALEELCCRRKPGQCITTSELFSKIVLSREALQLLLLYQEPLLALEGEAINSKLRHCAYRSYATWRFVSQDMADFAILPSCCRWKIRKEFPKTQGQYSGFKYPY
# Method: Plasma and brain samples from experiments with JNJ-47965567 were quantified at the Neuroscience Therapeutic Area, Janssen Research & Development (San Diego, CA, USA) using an API 4000 MS/MS system (Applied Biosystems, Concord, ON, Canada) interfaced with an Agilent 1100 Series HPLC (Agilent Technologies). To measure the percentage of P2X7R brain occupancy of JNJ-47965567, ex vivo receptor binding autography was performed as recently described. Briefly, 20 μm-thick hippocampal slices were prepared and P2X7R radioligand binding was determined at room temperature with 10 nM [^3H] JNJ-54232334 (Janssen) in 50 mM Tris-HCl incubation buffer containing 0.1% bovine serum albumin. The non-specific binding was measured using adjacent sections incubated in the additional presence of 100 μM A-740003 (Tocris Bioscience, Bristol UK). Sections were incubated for 1 min, washed in ice-cold incubation buffer (4 times, 5 min each), followed by two dips in deionized water and rapidly dry under a stream of cold air before acquisition. Quantitative analysis was performed using the Tracer ß-Imager with M3 Vision software (Biospace Lab, Paris, France). Ex vivo receptor labelling was expressed as the percentage of receptor labelling in corresponding brain areas of vehicle-treated control animals.
SMILES,blood concentrations of ethosuximide on co-application of AFC [1],"brain concentration of ethosuximide alone ([1]; ethosuximide 100 mg/kg i.p., n = 6)","brain concentration of ethosuximide with AFC 50 mg/kg i.p. ([1]; ethosuximide 100 mg/kg i.p., n = 6, significantly increased)",receptor occupancy at 15 mg/kg [2]
"CCC1(C)CC(=O)NC1=O (stereo not shown) [Ethosuximide, ethosuximide]",did not significantly modulate,377.3 ± 14.3 µM,453.9 ± 18.7 µM,
"O=C(NCC1(N2CCN(c3ccccc3)CC2)CCOCC1)c1cccnc1Sc1ccccc1 [JNJ-47965567, N-[[4-(4-phenyl-piperazin-1-yl)tetrahydro-2H-pyran-4-yl]-methyl]-2-(phenyl-thio) nicotinamide]",,,,98 ± 2%
